According to US7713701B2, “DNA-binding polymers” (California Institute of Technology, priority 2004, dated 2010):
Where “and” joins values, the source holds several entries; their conditions need not be identical. Equal values may be shown once.

Experiments:
[1] = tested on: T-A base pair at N-terminal position of binding site 5′-A T N T A C A-3′ (N=T), 285 bp PCR product from plasmid pCW15; assay: Quantitative DNase I footprint titration, T-A site; conditions: for Equilibrium association constant, T-A: DNase I footprint titration, 22° C., pH 7.0, 10 mM Tris-HCl, 10 mM KCl, 10 mM MgCl2, 5 mM CaCl2, mean of at least three, SD in parentheses; for selectivity for T-A relative to A-T / preference / specificity for T-A relative to G-C: ratio of association constants
Description: (§1) Oligonucleotide primers SF1 (5′-AATTC-GAGCTCGGTACCGGGG-3′; SEQ ID NO:1) and SF2(5′-[…]-3′; SEQ ID NO:2) were synthesized by the Biopolymer Synthesis Center at the California Institute of Technology. Products from PCR amplification of the pCW15 using 5′-[γ-^32P]-labeled SF1 and SF2 were purified on a 7% non-denaturing polyacrylamide gel. Glycogen (20 mg/mL), dNTPs (PCR nucleotide mix), and all enzymes, unless otherwise stated, were purchased from Boehringer-Mannheim. Deoxyadenosine [γ-^32P]triphosphate was obtained from ICN. Calf thymus DNA (sonicated, deproteinized) and DNase I (7500 units/mL. FPLC pure) were from Amersham Pharmacia. AmpliTaq DNA polymerase was obtained from Perkin-Elmer and was used with provided buffers. Tris.HCl, DTT, RNase-free water, and 0.5 M EDTA were from United States Biochemical. Calcium chloride, potassium chloride, and magnesium chloride were purchased from Fluka. Tris-borate-EDTA was from GIBCO and bromophenol blue was from Acros. All reagents were used without further purification.
(§2) The DNA sequence specificity of novel thiophene-2-carboxamide-containing polymers (DNA-binding polymers 1-8) was evaluated by comparing their affinities for each Watson-Crick base pair to those of N-methylimidazole (Im) and N-methylpyrrole (Py) (DNA-binding polymers 9-10). […] Affinities were determined using DNase I footprinting, as performed by standard protocols (e.g., Trauger et al., Methods Enzymol. 2001, 340, 450).
(§3) Briefly, Quantitative DNase I footprinting titration experiments (10 mM Tris-HCl. 10 mM KCl, 10 mM MgC2, 5 mM CaCl2, pH 7.0, 22° C.) were performed on 5′-^32P end-labeled, 285 bp PCR product from plasmid construct pCW15 (as described previously in Ellervik et al., J. Am. Chem. Soc. 2000, 122, 9354). This plasmid contains four binding sites that vary at a single N-terminal position, 5′-A T N T A C A-3′, where N=T, A, G, C. The divergent behavior of control DNA-binding polymers 9 and 10 illustrates the need for development of new N-terminal residues.

[2] = tested on: A-T base pair at N-terminal position of binding site 5′-A T N T A C A-3′ (N=A), 285 bp PCR product from plasmid pCW15; assay: Quantitative DNase I footprint titration, A-T site; conditions: 22° C., pH 7.0, 10 mM Tris-HCl, 10 mM KCl, 10 mM MgCl2, 5 mM CaCl2, mean of at least three, SD in parentheses
Description: as §1, §2, §3

[3] = tested on: C-G base pair at N-terminal position of binding site 5′-A T N T A C A-3′ (N=C), 285 bp PCR product from plasmid pCW15; assay: Quantitative DNase I footprint titration, C-G site; conditions: 22° C., pH 7.0, 10 mM Tris-HCl, 10 mM KCl, 10 mM MgCl2, 5 mM CaCl2, mean of at least three, SD in parentheses
Description: as §1, §2, §3

[4] = tested on: G-C base pair at N-terminal position, binding site 5′-A T G T A C A-3′, 285 bp PCR product from plasmid pCW15; assay: Quantitative DNase I footprint titration, G-C site; conditions: for Equilibrium association constant, G-C: DNase I footprint titration, 22° C., pH 7.0, 10 mM Tris-HCl, 10 mM KCl, 10 mM MgCl2, 5 mM CaCl2, mean of at least three, SD in parentheses
Description: as §1, §2, §3

[5] = tested on: four binding sites 5′-A T N T A C A-3′, N=T, A, G, C, of pCW15 PCR product; assay: DNase I footprinting, sequence specificity across the four sites; conditions: comparison of affinities for the four Watson-Crick base pairs
Description: as §1, §2, §3

SMILES | Equilibrium association constant, T-A [1] | Equilibrium association constant, A-T [2] | Equilibrium association constant, C-G [3] | preference for G-C relative to T-A, A-T, and C-G base pairs ([4]; ratio of association constants) [fold] | selectivity for T-A relative to A-T [1] [fold] | Equilibrium association constant, G-C [4] | preference / specificity for T-A relative to G-C [1] [fold] | sequence specificity (in words) [5]
CN(C)CCCNC(=O)CCNC(=O)c1cc(NC(=O)c2cc(NC(=O)c3cc(NC(=O)c4nc(NC(=O)CCCNC(=O)c5cc(NC(=O)c6cc(NC(=O)c7cc(NC(=O)c8nccn8C)cn7C)cn6C)cn5C)cn4C)cn3C)cn2C)cn1C [compound 9] | 3.8 (0.3) × 10^9 M^−1 | 2.8 (0.2) × 10^9 M^−1 | 3.2 (0.4) × 10^9 M^−1 | > 15 | – | – | – | –
CN(C)CCCNC(=O)CCNC(=O)c1cc(NC(=O)c2cc(NC(=O)c3cc(NC(=O)c4nc(NC(=O)CCCNC(=O)c5cc(NC(=O)c6cc(NC(=O)c7cc(NC(=O)c8sccc8F)cn7C)cn6C)cn5C)cn4C)cn3C)cn2C)cn1C [compound 7] | 1.2 (0.2) × 10^10 M^−1 | 3.9 (0.3) × 10^9 M^−1 | 2.9 (0.3) × 10^8 M^−1 | – | 3 | 3.7 (0.4) × 10^8 M^−1 | – | –
Cc1ccsc1C(=O)Nc1cc(C(=O)Nc2cc(C(=O)Nc3cc(C(=O)NCCCC(=O)Nc4cn(C)c(C(=O)Nc5cc(C(=O)Nc6cc(C(=O)Nc7cc(C(=O)NCCC(=O)NCCCN(C)C)n(C)c7)n(C)c6)n(C)c5)n4)n(C)c3)n(C)c2)n(C)c1 [compound 2] | 2.3 (0.4) × 10^9 M^−1 | 1.4 (0.2) × 10^9 M^−1 | 1.0 (0.3) × 10^7 M^−1 | – | – | 1.0 (0.4) × 10^7 M^−1 | 140 | –
CN(C)CCCNC(=O)CCNC(=O)c1cc(NC(=O)c2cc(NC(=O)c3cc(NC(=O)c4nc(NC(=O)CCCNC(=O)c5cc(NC(=O)c6cc(NC(=O)c7cc(NC(=O)c8sccc8N)cn7C)cn6C)cn5C)cn4C)cn3C)cn2C)cn1C [compound 3] | 6.3 (1.0) × 10^9 M^−1 | 4.6 (0.6) × 10^9 M^−1 | 2.2 (0.3) × 10^8 M^−1 | – | – | 7.8 (0.9) × 10^8 M^−1 | – | distinguish T-A from G-C but again do not distinguish T-A from A-T
CN(C)CCCNC(=O)CCNC(=O)c1cc(NC(=O)c2cc(NC(=O)c3cc(NC(=O)c4nc(NC(=O)CCCNC(=O)c5cc(NC(=O)c6cc(NC(=O)c7cc(NC(=O)c8cccs8)cn7C)cn6C)cn5C)cn4C)cn3C)cn2C)cn1C [compound 1] | 6.0 (0.7) × 10^9 M^−1 | 4.7 (0.7) × 10^9 M^−1 | 2.2 (0.3) × 10^9 M^−1 | – | – | 4.3 (0.4) × 10^8 M^−1 | – | little sequence specificity
CC(=O)Nc1ccsc1C(=O)Nc1cc(C(=O)Nc2cc(C(=O)Nc3cc(C(=O)NCCCC(=O)Nc4cn(C)c(C(=O)Nc5cc(C(=O)Nc6cc(C(=O)Nc7cc(C(=O)NCCC(=O)NCCCN(C)C)n(C)c7)n(C)c6)n(C)c5)n4)n(C)c3)n(C)c2)n(C)c1 [compound 4] | 5.9 (0.3) × 10^9 M^−1 | 2.9 (0.1) × 10^9 M^−1 | 6.0 (0.2) × 10^8 M^−1 | – | – | 6.6 (0.4) × 10^8 M^−1 | – | distinguish T-A from G-C but again do not distinguish T-A from A-T
COc1ccsc1C(=O)Nc1cc(C(=O)Nc2cc(C(=O)Nc3cc(C(=O)NCCCC(=O)Nc4cn(C)c(C(=O)Nc5cc(C(=O)Nc6cc(C(=O)Nc7cc(C(=O)NCCC(=O)NCCCN(C)C)n(C)c7)n(C)c6)n(C)c5)n4)n(C)c3)n(C)c2)n(C)c1 [compound 6] | 2×10^9 M^−1 and 2.0 (0.4) × 10^9 M^−1 | 3.2 (0.6) × 10^8 M^−1 | ≦1.0 × 10^7 M^−1 | – | 6 | ≦1.0 × 10^7 M^−1 | > 200 | –
CN(C)CCCNC(=O)CCNC(=O)c1cc(NC(=O)c2cc(NC(=O)c3cc(NC(=O)c4nc(NC(=O)CCCNC(=O)c5cc(NC(=O)c6cc(NC(=O)c7cc(NC(=O)c8sccc8Cl)cn7C)cn6C)cn5C)cn4C)cn3C)cn2C)cn1C [compound 8] | 1.3 (0.2) × 10^10 M^−1 | 3.7 (0.2) × 10^9 M^−1 | 2.1 (1.1)× 10^8 M^−1 | – | 3 | 3.1 (0.6) × 10^8 M^−1 | – | –
CN(C)CCCNC(=O)CCNC(=O)c1cc(NC(=O)c2cc(NC(=O)c3cc(NC(=O)c4nc(NC(=O)CCCNC(=O)c5cc(NC(=O)c6cc(NC(=O)c7cc(NC(=O)c8cccn8C)cn7C)cn6C)cn5C)cn4C)cn3C)cn2C)cn1C [compound 10] | 5.1 (0.6) × 10^9 M^−1 | 3.1 (0.3) × 10^9 M^−1 | 2.6 (0.3) × 10^8 M^−1 | – | – | 1.1 (0.1) × 10^9 M^−1 | – | little sequence specificity
CN(C)CCCNC(=O)CCNC(=O)c1cc(NC(=O)c2cc(NC(=O)c3cc(NC(=O)c4nc(NC(=O)CCCNC(=O)c5cc(NC(=O)c6cc(NC(=O)c7cc(NC(=O)c8sccc8O)cn7C)cn6C)cn5C)cn4C)cn3C)cn2C)cn1C [compound 5] | 6.2 (0.6) × 10^9 M^−1 | 4.5 (0.6) × 10^9 M^−1 | 8.4 (0.1) × 10^7 M^−1 | – | – | 2.1 (0.3) × 10^8 M^−1 | – | distinguish T-A from G-C but again do not distinguish T-A from A-T
